Test results from US20200317660A1, “Quinazolinone Compound and Application Thereof” (LUOXIN PHARMACEUTICAL (SHANGHAI) CO., LTD., priority 2017, published 2020).
Read-outs that look alike come from different tables or passages of the source.

What was measured:
PI3Kδ = target: T1, PI3Kδ (Homo sapiens, UniProt O00329); assay: In vitro test of enzyme activity (ADP-Glo lipokinase), PI3K delta; format: biochemical; settings: 40 μM ATP, 50 μM PIP2:3PS, 120 min
T1 construct: purchased Millipore 14-604-K
T1 sequence (O00329 whole entry): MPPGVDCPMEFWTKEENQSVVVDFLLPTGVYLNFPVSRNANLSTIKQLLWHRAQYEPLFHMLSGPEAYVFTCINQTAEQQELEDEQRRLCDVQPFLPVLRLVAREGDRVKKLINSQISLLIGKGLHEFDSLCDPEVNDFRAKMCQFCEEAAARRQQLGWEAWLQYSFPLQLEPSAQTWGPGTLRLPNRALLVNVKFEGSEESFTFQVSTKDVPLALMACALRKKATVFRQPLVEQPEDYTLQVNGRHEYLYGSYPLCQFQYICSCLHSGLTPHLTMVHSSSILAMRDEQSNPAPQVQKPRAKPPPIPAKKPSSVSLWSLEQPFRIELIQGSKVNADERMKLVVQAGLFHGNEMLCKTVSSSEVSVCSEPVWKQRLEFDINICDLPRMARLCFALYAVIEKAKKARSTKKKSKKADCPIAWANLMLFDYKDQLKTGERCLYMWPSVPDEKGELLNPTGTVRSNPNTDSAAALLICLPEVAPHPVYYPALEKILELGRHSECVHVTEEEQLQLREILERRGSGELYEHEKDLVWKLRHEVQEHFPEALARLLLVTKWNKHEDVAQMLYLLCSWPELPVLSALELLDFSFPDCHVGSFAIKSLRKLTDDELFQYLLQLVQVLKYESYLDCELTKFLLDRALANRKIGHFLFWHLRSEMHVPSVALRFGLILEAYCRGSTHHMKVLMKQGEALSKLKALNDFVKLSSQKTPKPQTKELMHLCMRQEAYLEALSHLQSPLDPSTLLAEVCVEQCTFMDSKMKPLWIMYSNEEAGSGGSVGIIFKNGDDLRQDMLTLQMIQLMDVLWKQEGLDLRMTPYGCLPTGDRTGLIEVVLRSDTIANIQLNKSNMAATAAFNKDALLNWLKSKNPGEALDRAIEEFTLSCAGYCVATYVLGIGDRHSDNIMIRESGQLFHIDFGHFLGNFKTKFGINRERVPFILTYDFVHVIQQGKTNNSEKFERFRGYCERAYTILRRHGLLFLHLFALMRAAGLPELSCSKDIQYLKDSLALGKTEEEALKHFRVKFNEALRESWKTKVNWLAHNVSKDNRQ
T1 sequence (P27986 whole entry partner): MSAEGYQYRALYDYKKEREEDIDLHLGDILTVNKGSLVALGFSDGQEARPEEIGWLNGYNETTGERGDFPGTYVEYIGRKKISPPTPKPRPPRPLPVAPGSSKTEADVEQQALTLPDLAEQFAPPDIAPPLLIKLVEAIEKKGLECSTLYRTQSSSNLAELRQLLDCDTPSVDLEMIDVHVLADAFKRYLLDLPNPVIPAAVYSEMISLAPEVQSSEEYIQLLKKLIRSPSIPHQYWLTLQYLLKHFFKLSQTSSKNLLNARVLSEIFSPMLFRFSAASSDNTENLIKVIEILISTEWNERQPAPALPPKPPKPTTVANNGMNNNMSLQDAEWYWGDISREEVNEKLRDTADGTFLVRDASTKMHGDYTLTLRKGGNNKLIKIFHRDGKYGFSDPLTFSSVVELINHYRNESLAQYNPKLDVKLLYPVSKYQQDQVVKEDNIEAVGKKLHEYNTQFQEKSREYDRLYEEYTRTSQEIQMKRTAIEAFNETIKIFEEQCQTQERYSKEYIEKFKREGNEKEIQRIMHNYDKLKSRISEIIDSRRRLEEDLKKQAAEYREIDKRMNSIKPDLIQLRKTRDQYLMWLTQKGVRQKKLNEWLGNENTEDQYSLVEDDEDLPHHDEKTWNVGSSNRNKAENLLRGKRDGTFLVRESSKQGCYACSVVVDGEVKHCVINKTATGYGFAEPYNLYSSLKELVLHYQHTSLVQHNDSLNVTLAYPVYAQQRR
Method: (§1) 1. In Vitro Test of Enzyme Activity
(§2) The lipokinase reaction was carried out under the conditions of a suitable substrate and ATP, followed by two steps to detect the kinase activity with the ADP-Glo™ kit. The first step was terminating the kinase reaction, wherein the remaining ATP was completely removed and only ADP was left; the second step was adding kinase detection reagents to convert ADP to ATP, accompanied by luciferin/luciferase reaction. Finally, the output value of fluorescence value was converted into kinase activity.
(§3) Experimental materials and equipments:
(§4) 2. Kit: ADP-Glo™ Lipokinase and PIP2:3PS Kit (Promega # V1792)
(§5) The kit contains: 1 mM PIP2:3PS, 10× lipid dilution buffer, 1 M magnesium chloride, 10 mM ATP, 10 mM ADP, ADP-Glo reagent, detection buffer and detection substrate.
(§6) 3. Reaction plate: OptiPlate-384, white and transparent (PerkinElmer #6007299).
(§7) 1. 10× reaction buffer: 500 mM HEPES, pH 7.5, 500 mM NaCl, 9 mM MgCl2; BSA: 10% stock solution, homemade.
(§8) 2. Final test system conditions: 1× reaction system: 50 mM HEPES, 50 mM NaCl, 3 mM MgCl2, 0.01% BSA (freshly prepared on the day of the experiment), 1% DMSO (v/v)+/−compound
(§9) 3. Reaction system: 3 μL mixture of the enzyme and the substrate (1:1)+2 μL ATP/MgCl2 mixture+5 μL ADP-Glo reagent+10 μL detection reagent.
(§10) The detailed experimental procedures are as follows:
(§11) 1. Compound dilution: 50 nL 100×compound/DMSO was transferred to the test well plate with Echo. • For PI3Kα, the compound was diluted three-fold from the highest concentration of 0.111 mM for a total of 10 concentrations. • For PI3Kβ/PI3Kδ/PI3Kγ, the compound was three-fold diluted from the highest concentration of 1.11 mM for a total of 10 concentrations.
(§12) (1) The compound to be tested was prepared and 50 nL of 100 plus compound solution or DMSO was added to the corresponding well plate.
(§13) (2) 3.33 plate reaction buffer was prepared.
(§14) (3) 3.33 solution PIP2:3PS was prepared, PIP2:3PS was thawed for at least 1 minute before use.
(§15) (4) 2.5 mM containing 5.25 mM MgCl2 was prepared.
(§16) (5) 3.33 PI3Kα/PI3Kβ/PI3Kδ/PI3Kγ solution was prepared.
(§17) (6) The lipokinase solution and the PIP2:3PS solution were mixed in a volume ratio of 1:1.
(§18) (7) 3.33: lipokinase buffer and PIP2:3PS solution were mixed in a volume ratio of 1:1.
(§19) (8) 3 μL of buffer solution and PIP2:3PS were added to the first and the second columns of the well plate.
(§20) (9) 3 μL of the mixed solution of the enzyme and PIP2:3PS was added to the wells except the first and the second columns, centrifuged for 10 seconds (1000 rpm) and incubated at 23° C. for 20 minutes.
(§21) (10) 2 μL […] was added and well was shaken.
(§22) (11) The well plate was covered and shaken for about 30 s, then the well plate was incubated at 23° C. for 2 hours.
(§23) (12) 5 μL of ADP-Glo reagent containing 10 mM MgCl2 was added.
(§24) (13) The well plate was centrifuged at 1000 rpm for 10 seconds, and the well plate was then covered, shaken for about 30 seconds, and incubated at 23° C. for 60 minutes.
(§25) (14) 10 μL kinase detection reagent was added.
(§26) (15) The well plate was centrifuged at 1000 rpm for 10 seconds, and then incubated at 23° C. for 60 minutes.
(§27) (16) The fluorescence value was measured on the Envision instrument.

PI3Kβ = target: T2, PI3Kβ (Homo sapiens, UniProt P42338); assay: In vitro test of enzyme activity (ADP-Glo lipokinase), PI3K beta; format: biochemical; settings: 40 μM ATP, 50 μM PIP2:3PS, 120 min
T2 construct: purchased Promega V1751
T2 sequence (P42338 whole entry): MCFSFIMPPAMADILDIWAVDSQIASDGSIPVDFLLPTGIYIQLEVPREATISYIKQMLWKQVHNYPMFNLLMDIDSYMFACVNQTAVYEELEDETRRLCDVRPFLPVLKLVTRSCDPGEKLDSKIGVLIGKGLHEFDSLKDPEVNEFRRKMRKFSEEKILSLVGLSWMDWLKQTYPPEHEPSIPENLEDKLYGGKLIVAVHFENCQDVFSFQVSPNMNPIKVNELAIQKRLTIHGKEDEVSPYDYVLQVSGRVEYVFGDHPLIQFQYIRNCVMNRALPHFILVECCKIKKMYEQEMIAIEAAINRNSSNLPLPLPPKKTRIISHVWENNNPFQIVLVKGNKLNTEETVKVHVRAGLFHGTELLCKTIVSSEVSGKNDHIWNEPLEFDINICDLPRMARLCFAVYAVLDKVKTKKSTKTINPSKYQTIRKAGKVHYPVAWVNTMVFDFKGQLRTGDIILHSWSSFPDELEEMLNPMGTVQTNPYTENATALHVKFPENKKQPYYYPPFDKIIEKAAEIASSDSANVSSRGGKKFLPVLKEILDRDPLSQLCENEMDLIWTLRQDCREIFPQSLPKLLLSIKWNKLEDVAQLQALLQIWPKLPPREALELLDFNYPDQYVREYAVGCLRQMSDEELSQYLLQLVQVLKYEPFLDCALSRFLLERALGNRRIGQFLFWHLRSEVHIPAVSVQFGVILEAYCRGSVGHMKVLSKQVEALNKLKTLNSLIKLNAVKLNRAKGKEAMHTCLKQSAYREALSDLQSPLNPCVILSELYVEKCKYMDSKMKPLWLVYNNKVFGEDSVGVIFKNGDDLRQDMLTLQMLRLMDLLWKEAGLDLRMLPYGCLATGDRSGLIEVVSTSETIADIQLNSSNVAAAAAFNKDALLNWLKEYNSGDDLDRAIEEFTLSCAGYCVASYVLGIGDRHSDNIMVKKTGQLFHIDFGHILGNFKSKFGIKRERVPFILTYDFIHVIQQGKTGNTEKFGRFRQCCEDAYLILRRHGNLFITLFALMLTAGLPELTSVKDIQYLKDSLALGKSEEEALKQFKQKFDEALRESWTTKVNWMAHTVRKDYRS
T2 sequence (P27986 whole entry partner): as the sequence (P27986 whole entry partner) above
Method: as §1, §2, §3, §4, §5, §6, §7, §8, §9, §10, §11, §12, §13, §14, §15, §16, §17, §18, §19, §20, §21, §22, §23, §24, §25, §26, §27

[1] = tested on: phosphorylation of PI3K downstream protein Akt in MCF7 cells; assay: In vitro test of cells activity: ELISA of Akt phosphorylation in MCF7 cells; format: cell-based; settings: 2 h compound, insulin 10 μg/mL stimulation, pAkt ELISA, read-out: MCF7 Cell IC50
Method: 2. In vitro test of cells activity
By the method of ELISA, the inhibition level of the test compound on the phosphorylation of PI3K downstream protein Akt in the signaling pathway was determined in MCF7 cells line to reflect the cells activity of the compound.
Cell culture medium: complete cell culture medium (RPMI 1640+10% serum+1% L-glutamine+1% double antibody)
Serum-free medium (without serum, RPMI 1640+1% L-glutamine+1% double antibody)
The detailed procedures areas follows:
(1) MCF7 cells (ATCC® HTB-22™) were inoculated into a 96-well plate at 100 μL of cell complete medium per well (2.5*10^4 cells per well), and the cells were incubated at 37° C. and 5% CO2 for 24 hours.
(2) The complete cell culture medium was replaced with 100 μL of serum-free medium, and incubated for starvation overnight.
(3) The compound was prepared (The initial concentration of the compound is 1 mM, which was subjected to a three-fold dilution in 10 concentrations, and the compound of each concentration was then diluted 100-fold with serum-free medium). 25 μL of the diluted compound was added to the cells orifice plate.
(4) The cells were incubated at 37° C. and 5% CO2 for 2 hours.
(5) The cells in the well plate were stimulated with 10 μg/mL insulin (Sigma # I9278-5 mL), incubated for 30 minutes, and then centrifuged at 1000 rpm for 5 minutes at room temperature.
(6) 250 μL of 1× balanced salt solution (Invitrogen, #14065-056, 4° C., containing 1 mM/L Na3VO4) was added to each well to wash the cells once.
(7) 100 μL of lysis buffer (trimethylolaminomethane hydrochloride, Invitrogen, #15567-1000 ml) was added to each well, shaken at 4° C. for 60 minutes, and then centrifuged at 4000 rpm for 4 minutes.
(8) The following procedures were carried out according to the instructions of ELISA kit (TGR BioSciences # EKT002).

PI3Kγ = target: T3, PI3Kγ (Homo sapiens, UniProt P48736); assay: In vitro test of enzyme activity (ADP-Glo lipokinase), PI3K gamma; format: biochemical; settings: 25 μM ATP, 50 μM PIP2:3PS, 120 min
T3 construct: purchased Millipore 14-558-K
T3 sequence (P48736 whole entry): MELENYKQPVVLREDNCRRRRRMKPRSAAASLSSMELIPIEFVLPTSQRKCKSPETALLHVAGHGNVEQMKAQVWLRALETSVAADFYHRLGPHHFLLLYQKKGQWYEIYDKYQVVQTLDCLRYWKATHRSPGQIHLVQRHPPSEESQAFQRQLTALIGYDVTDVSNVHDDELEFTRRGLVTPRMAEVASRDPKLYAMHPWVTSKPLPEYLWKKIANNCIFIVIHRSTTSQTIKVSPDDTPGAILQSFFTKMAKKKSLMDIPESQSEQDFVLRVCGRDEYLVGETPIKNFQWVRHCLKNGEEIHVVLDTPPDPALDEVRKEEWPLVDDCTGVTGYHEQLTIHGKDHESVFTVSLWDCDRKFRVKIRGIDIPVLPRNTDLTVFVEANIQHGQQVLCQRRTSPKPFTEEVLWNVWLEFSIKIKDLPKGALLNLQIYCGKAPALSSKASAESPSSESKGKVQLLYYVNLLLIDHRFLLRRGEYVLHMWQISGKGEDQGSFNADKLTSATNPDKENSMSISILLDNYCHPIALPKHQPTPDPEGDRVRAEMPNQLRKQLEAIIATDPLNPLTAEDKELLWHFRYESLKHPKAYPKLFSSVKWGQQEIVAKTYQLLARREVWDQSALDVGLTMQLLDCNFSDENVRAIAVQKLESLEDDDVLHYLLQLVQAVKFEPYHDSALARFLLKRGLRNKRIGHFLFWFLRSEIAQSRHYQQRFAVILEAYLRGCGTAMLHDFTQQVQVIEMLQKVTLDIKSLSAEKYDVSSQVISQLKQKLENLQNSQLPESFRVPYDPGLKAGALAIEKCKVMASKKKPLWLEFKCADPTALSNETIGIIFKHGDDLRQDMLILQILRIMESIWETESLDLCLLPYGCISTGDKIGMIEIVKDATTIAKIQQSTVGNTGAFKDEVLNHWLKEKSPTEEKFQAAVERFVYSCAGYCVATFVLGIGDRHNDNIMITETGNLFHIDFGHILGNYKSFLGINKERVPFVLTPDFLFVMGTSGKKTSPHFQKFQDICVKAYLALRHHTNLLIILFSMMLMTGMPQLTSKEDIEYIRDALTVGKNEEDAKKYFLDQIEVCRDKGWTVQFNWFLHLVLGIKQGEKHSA
Method: as §1, §2, §3, §4, §5, §6, §7, §8, §9, §10, §11, §12, §13, §14, §15, §16, §17, §18, §19, §20, §21, §22, §23, §24, §25, §26, §27

PI3Kα = target: T4, PI3Kα (Homo sapiens, UniProt P42336); assay: In vitro test of enzyme activity (ADP-Glo lipokinase), PI3K alpha; format: biochemical; settings: 40 μM ATP, 50 μM PIP2:3PS, 120 min
T4 construct: purchased Millipore 14-602-K
T4 sequence (P42336 whole entry): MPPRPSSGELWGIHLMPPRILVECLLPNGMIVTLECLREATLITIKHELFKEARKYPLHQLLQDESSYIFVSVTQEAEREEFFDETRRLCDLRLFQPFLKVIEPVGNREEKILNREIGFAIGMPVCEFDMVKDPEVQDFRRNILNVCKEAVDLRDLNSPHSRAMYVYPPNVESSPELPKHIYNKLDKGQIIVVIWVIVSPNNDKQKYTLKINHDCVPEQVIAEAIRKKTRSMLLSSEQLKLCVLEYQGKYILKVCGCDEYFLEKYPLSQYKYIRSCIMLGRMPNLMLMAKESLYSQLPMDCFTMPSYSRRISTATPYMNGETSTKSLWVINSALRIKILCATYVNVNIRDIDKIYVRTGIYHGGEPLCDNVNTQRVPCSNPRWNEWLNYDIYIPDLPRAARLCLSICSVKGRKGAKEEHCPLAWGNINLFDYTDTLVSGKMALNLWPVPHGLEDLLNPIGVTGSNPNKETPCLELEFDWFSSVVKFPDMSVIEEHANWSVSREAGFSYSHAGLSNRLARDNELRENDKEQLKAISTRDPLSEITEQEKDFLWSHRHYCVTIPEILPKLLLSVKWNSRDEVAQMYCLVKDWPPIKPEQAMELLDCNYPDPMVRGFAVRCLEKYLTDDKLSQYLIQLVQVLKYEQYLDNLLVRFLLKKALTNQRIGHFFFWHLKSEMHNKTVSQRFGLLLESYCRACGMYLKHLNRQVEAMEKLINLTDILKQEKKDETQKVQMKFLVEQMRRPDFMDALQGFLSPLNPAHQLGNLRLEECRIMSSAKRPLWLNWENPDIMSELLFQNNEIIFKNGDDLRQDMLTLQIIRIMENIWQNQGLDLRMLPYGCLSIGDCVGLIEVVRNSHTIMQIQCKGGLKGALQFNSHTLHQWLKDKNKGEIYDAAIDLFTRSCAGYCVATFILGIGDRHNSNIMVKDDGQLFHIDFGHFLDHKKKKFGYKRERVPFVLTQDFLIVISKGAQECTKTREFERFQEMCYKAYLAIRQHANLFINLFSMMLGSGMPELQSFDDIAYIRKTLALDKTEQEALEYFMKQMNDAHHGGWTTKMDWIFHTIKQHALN
T4 sequence (P27986 whole entry partner): as the sequence (P27986 whole entry partner) above
Method: as §1, §2, §3, §4, §5, §6, §7, §8, §9, §10, §11, §12, §13, §14, §15, §16, §17, §18, §19, §20, §21, §22, §23, §24, §25, §26, §27

IC50 (PI3Kδ) [nM] | IC50 (PI3Kβ) [nM] | IC50 [1] [nM] | IC50 (PI3Kγ) [nM] | IC50 (PI3Kα) [nM] | IC50 ([1]; Homo sapiens, MCF7, 2 h) [nM] | Compound
16.4 | 432 | 84.9 | 17 | 3.42 | – | CNC(=O)[C@@H](C)Cn1cnc2ccc(-c3cnc(OC)c(NS(=O)(=O)c4ccc(F)cc4C(F)(F)F)c3)cc2c1=O [WX194]
12.4 | 216 | – | 33.7 | 2.84 | – | CNC(=O)CCCn1cnc2ccc(-c3cnc(C)c(NS(=O)(=O)c4ccc(F)cc4Cl)c3)cc2c1=O [WX002]
13.2 | 391 | – | 14.2 | 11.2 | – | COc1ncc(-c2ccc3ncn(CC(C)C(=O)NCC(F)(F)F)c(=O)c3c2)cc1NS(=O)(=O)c1ccc(F)cc1Cl (single isomer, unassigned) [WX059]
7.16 | 124 | – | 8.37 | 2.66 | – | COc1ncc(-c2ccc3ncn(CC(F)(F)C(N)=O)c(=O)c3c2)cc1NS(=O)(=O)c1ccc(F)cc1Cl [WX041]
122 | 1060 | 628 | 20.4 | 13.6 | – | COc1ncc(-c2ccc3ncn(CC(C)C(=O)O)c(=O)c3c2)cc1NS(=O)(=O)c1ccc(F)cc1Cl (single isomer, unassigned) [R002, reference compound]
7.42 | 244 | – | 49.7 | 4.39 | – | Cc1ncc(-c2ccc3ncn(CCCC(=O)N4CCCC4)c(=O)c3c2)cc1NS(=O)(=O)c1ccc(F)cc1Cl [WX005]
45.8 | 345 | – | 421 | 34.4 | – | Cc1ncc(-c2ccc3ncn(CCN(C)C)c(=O)c3c2)cc1NS(=O)(=O)c1ccc(F)cc1Cl [R010, reference compound]
11.6 | 554 | – | 29.9 | 0.71 | – | CNC(=O)C(C)Cn1cnc2ccc(-c3cnc(C)c(NS(=O)(=O)c4sc(C)nc4C)c3)cc2c1=O (single isomer, unassigned) [WX034]
336 | 7230 | – | 318 | 71.4 | – | CNC(=O)C(C)Cn1cnc2ccc(-c3cnc(CO)c(NS(=O)(=O)c4ccc(F)cc4Cl)c3)cc2c1=O (single isomer, unassigned) [WX063]
– | 2160 | – | – | 22.8 | > 1000 | CNC(=O)C(C)Cn1cnc2ccc(-c3cnc(OC(F)(F)F)c(NS(=O)(=O)c4ccc(F)cc4Cl)c3)cc2c1=O (centres unmarked) [WX127]
61 | 5080 | – | 155 | 19.6 | – | CCC(CC)NC(=O)C(C)Cn1cnc2ccc(-c3cnc(OC)c(NS(=O)(=O)c4ccc(F)cc4Cl)c3)cc2c1=O (single isomer, unassigned) [WX056]
– | 1770 | 395 | – | 41 | – | CNC(=O)[C@@H]1CCC[C@H]1Cn1cnc2ccc(-c3cnc(OC)c(NS(=O)(=O)c4ccc(F)cc4Cl)c3)cc2c1=O (single isomer, unassigned) [WX196]
7.3 | 158 | – | 19.6 | 1.57 | – | CNC(=O)C(C)Cn1cnc2ccc(-c3cnc(C)c(NS(=O)(=O)c4sc(C)nc4C)c3)cc2c1=O (single isomer, unassigned) [WX035]
– | 1850 | 302 | – | 18.1 | – | CCC(Cn1cnc2ccc(-c3cnc(OC)c(NS(=O)(=O)c4ccc(F)cc4Cl)c3)cc2c1=O)C(=O)NC (single isomer, unassigned) [WX107]
29.6 | 390 | – | 68.3 | 4.77 | – | CNC(=O)C(C)Cn1cnc2ccc(-c3cnc(OC)c(NS(=O)(=O)c4cc(Cl)c(F)cc4F)c3)cc2c1=O (single isomer, unassigned) [WX095]
– | 133 | – | – | 6.89 | 52.3 | CCC(Cn1cnc2ccc(-c3cnc(OC)c(NS(=O)(=O)c4ccc(F)cc4Cl)c3)cc2c1=O)C(N)=O (centres unmarked) [WX021]
538 | > 10000 | – | 374 | 30 | – | CNC(=O)C(C)Cn1cnc2ccc(-c3cnc(CO)c(NS(=O)(=O)c4ccc(F)cc4Cl)c3)cc2c1=O (single isomer, unassigned) [WX062]
28.4 | 963 | – | 48.1 | 57.2 | – | CCC(CC)NC(=O)C(C)Cn1cnc2ccc(-c3cnc(OC)c(NS(=O)(=O)c4ccc(F)cc4Cl)c3)cc2c1=O (single isomer, unassigned) [WX057]
– | 736 | 460 | – | 19.5 | – | CNC(=O)C(C)Cn1cnc2c(F)cc(-c3cnc(OC)c(NS(=O)(=O)c4ccc(F)cc4Cl)c3)cc2c1=O (single isomer, unassigned) [WX106]
– | 832 | – | – | 25.5 | 125 | COc1ncc(-c2ccc3ncn(CC(C(N)=O)C(C)C)c(=O)c3c2)cc1NS(=O)(=O)c1ccc(F)cc1Cl (centres unmarked) [WX022]
– | 415 | 96.5 | – | 13.9 | – | CCC(Cn1cnc2ccc(-c3cnc(OC)c(NS(=O)(=O)c4ccc(F)cc4Cl)c3)cc2c1=O)C(=O)NC (single isomer, unassigned) [WX108]
4.36 | 88.5 | – | 44.1 | 6.71 | – | CNC(=O)C1(Cn2cnc3ccc(-c4cnc(OC)c(NS(=O)(=O)c5ccc(F)cc5Cl)c4)cc3c2=O)CC1 [WX202]
1.85 | 159 | – | 29.1 | 1.49 | – | Cc1nc(C)c(S(=O)(=O)Nc2cc(-c3ccc4ncn(CCCC(=O)N5CCCC5)c(=O)c4c3)cnc2C)s1 [WX007]
7.78 | 181 | – | 9.25 | 5.26 | – | COc1ncc(-c2ccc3ncn(CC(C)C(=O)NCCF)c(=O)c3c2)cc1NS(=O)(=O)c1ccc(F)cc1Cl (single isomer, unassigned) [WX066]
9.15 | 365 | – | 16.4 | 6.8 | – | COCCNC(=O)C(C)Cn1cnc2ccc(-c3cnc(OC)c(NS(=O)(=O)c4ccc(F)cc4Cl)c3)cc2c1=O (single isomer, unassigned) [WX064]
